2 compounds from PMC9409145, “(-)-Epicatechin Is a Biased Ligand of Apelin Receptor” (International Journal of Molecular Sciences, 2022) can be followed below.

For experiment [1], the target named is T1, apelin receptor (APLNR; APJ), PathHunter eXpress (Homo sapiens, UniProt P35414).
T1 construct: full-length receptor with C-terminal ProLink (beta-galactosidase fragment) tag, stably expressed in CHO-K1 with enzyme-acceptor-tagged beta-arrestin-2
T1 sequence (P35414 1-380): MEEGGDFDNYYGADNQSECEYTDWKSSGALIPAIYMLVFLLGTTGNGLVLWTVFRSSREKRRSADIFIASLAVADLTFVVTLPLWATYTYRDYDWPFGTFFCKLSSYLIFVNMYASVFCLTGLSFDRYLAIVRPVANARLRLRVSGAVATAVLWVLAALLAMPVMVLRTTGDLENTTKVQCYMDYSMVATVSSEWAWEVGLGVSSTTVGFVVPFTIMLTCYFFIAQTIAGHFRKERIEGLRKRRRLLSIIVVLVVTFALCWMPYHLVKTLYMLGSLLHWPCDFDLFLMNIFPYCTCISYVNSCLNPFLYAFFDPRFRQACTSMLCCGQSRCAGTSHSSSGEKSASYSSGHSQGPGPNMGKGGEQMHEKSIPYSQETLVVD
Put plainly: beta-arrestin-2 recruitment, enzyme complementation chemiluminescence, specific binding with Hill slope fit. It counts as cell-based. Conditions: agonist; apparent constant from functional response, not a radioligand; 1 h incubation; CHO-K1 cells; read-out: Kd. The source says:
beta-arrestin-2 recruitment, enzyme complementation chemiluminescence, specific binding with Hill slope fit on apelin receptor (APLNR; APJ), PathHunter eXpress

Experiment [2] concerns the target T2, apelin receptor (mouse skeletal muscle) (Mus musculus, UniProt Q9WV08).
T2 construct: gene Aplnr
T2 sequence (Q9WV08 1-377): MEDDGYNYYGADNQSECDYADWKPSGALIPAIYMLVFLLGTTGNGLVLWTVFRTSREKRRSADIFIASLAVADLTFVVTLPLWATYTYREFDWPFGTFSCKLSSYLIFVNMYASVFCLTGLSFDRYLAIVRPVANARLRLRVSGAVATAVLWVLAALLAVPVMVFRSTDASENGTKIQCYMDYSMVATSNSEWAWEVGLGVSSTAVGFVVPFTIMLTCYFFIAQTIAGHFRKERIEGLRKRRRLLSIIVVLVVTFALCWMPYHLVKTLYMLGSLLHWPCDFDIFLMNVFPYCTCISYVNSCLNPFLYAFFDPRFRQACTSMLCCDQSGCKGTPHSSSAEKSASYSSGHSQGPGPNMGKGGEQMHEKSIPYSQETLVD
Put plainly: affinity chromatography on immobilised epicatechin, MS identification. Conditions: muscle homogenate, 4 °C overnight, PBS pH 7.4; acid elution (MES pH 4.5); immobilised ligand. It counts as binding.

The target of experiment [3] is T1, apelin receptor (APLNR; APJ), PathHunter eXpress. Put plainly: beta-arrestin-2 recruitment, enzyme complementation chemiluminescence. It counts as cell-based. Conditions: antagonist; cells pre-incubated with ML221, then EC as agonist.

In the case of `Oc1cc(O)c2c(c1)O[C@H](c1ccc(O)c(O)c1)[C@H](O)C2` [EC, (-)-epicatechin], the EC50 in experiment [1] stood at 1.76 pM. Moreover, the “affinity chromatography on immobilised epicatechin, MS identification” value in experiment [2] is listed as “Five proteins were identified as receptors: apelin receptor”. As for `O=C(Oc1coc(CSc2ncccn2)cc1=O)c1ccc([N+](=O)[O-])cc1` [ML221, 5-[(4-Nitrobenzoyl)oxy]-2-[(2-pyrimidinylthio)methyl]-4H-pyran-4-one], the “beta-arrestin-2 recruitment, enzyme complementation chemiluminescence” value in experiment [3] is “the interaction of the antagonist with the receptor and the blockage of the effect of EC”.
